# B1: inhibited papain: papain deactivated by irradiation with NQMP-TEG; a single NQMP-TEG unit added as thioether (conjugate, UniProt P00784 134-345, looked up)
# Papain: IPEYVDWRQKGAVTPVKNQGSCGSCWAFSAVVTIEGIIKIRTGNLNEYSEQELLDCDRRSYGCNGGYPWSALQLVAQYGIHYRNTYPYEGVQRYCRSREKGPYAAKTDGVRQVQPYNEGALLYSIANQPVSVVLEAAGKDFQLYRGGIFVGPCGNKVDHAVAAVGYGPNYILIKNSWGTGWGENGYIRIKRGTGNSYGVCGLYTSSFYPVKN
# modifications: NQMP-TEG thioether adduct, inactivated
# How the values were obtained:
# [1] = Aqueous solubility of NQMP derivatives; details: wholly aqueous solutions
# [2] = Cysteine specificity of NQMP photo-click reaction, peptides lacking free cysteine; details: irradiation of peptides 6 and 7 with 4 to 12 equivalents of NQMP-TEG, HPLC analysis
# Method: To test the cysteine specificity of NQMP photo-click reaction, two analogs of peptide 4 containing the same amino acid sequence but lacking free cysteine were prepared. In nonapeptide 6 cysteine residue was replaced with methionine, while the thiol group in 4 was converted into disulfide bond by oxidative dimerization to form oligopeptide 7. […] These experiments show the high specificity of addition of photochemically generated oNQM to cysteine thiol group.
# 0.1 mM PBS solutions of peptides 4, 6, and 7 were irradiated with 300 or 350 nm fluorescent lamps in the presence of variable amounts of NQMP-TEG (2c, 0.1-0.4 mM). Composition of the photolysates was analyzed using HPLC (FIG. 17). Peptide 4-NQMP-TEG conjugate (5) was isolated using semi-prep C-18 HPLC column and characterized by ESI-HRMS (FIG. 18). The concentration of labeled peptide 5 was determined by UV spectroscopy using characteristic 330 nm band of NQMP chromophore. This solution was then used in calibration of HPLC instruments.
# [3] = target: T1, Papain from papaya latex (Carica papaya, UniProt P00784); test: Photochemical inhibition of papain activity by NQMP-TEG (L-BAPNA hydrolysis rate); format: biochemical; details: for Relative activity: PBS
# T1 construct: from tissue; host or cells: papaya latex
# T1 sequence (P00784 134-345): B1 Papain
# Method: (§1) Papain was activated by incubation the enzyme with 100-40 fold excess of free cysteine for 45 minutes in PBS solution. The concentration of the papain in the stock solution was determined by its […] at 280 nm (s=57600 M^−1 cm^−1) (Pace et. al., Protein Sci. 1995, 4:2411-2423). The activity of the protease was measured using N-α-benzoyl-L-arginine-p-nitroanilide (L-BAPNA). […] The formation of the latter can be followed by the rise of characteristic absorbance at 410 nm (ε=9800). Water-soluble NQMP-TEG (FIG. 13) was employed for inhibition experiments.
# A PBS solution containing 1.7 μM of papain, 80 μM of cysteine and variable amounts of NQMP-TEG was irradiated for 2 minutes with 350 nm fluorescent lamps. A stock solution of BAPNA was then added to a photolysate to achieve 800 μM concentration of the substrate and rate of hydrolysis was measured (Table 5, FIG. 14).
# A PBS solution containing 0.91 μM of papain, 44 μM of cysteine and 109 μM of NQMP-TEG was irradiated for 2, 3 or 4 minutes with 350 nm fluorescent lamps. A stock solution of BAPNA was then added to a photolysate to achieve 200 μM concentration of the substrate and rate of hydrolysis was measured (Table 6, FIG. 15).
# [4] = Photochemical stability on irradiation in PBS, HPLC analysis; format: physicochemical; details: 0.1 mM PBS solutions irradiated separately for 12 minutes, 300 and 350 nm fluorescent lamps
# Method: It is important to note that peptide 4 and NQMP-TEG (1c) are photochemically stable under these conditions. […] Obviously, NQMP 1c still forms oNQM 2c but in the absence of thiols the latter rapidly undergoes hydration back to starting materials.
# 0.1 mM PBS solutions of NQMP-TEG (2c) and peptide 4 were irradiated separately for 12 minutes using both 300 and 350 nm fluorescent lamps.
# [5] = target: T1, Papain from papaya latex; test: Photochemical restoration (re-activation) of NQMP-inhibited papain activity; format: biochemical; details: for Papain Activity: photolysate with inhibited papain, NQMP-TEG, cysteine plus 2-(2-(vinyloxy)ethoxy)ethanol equal to initial NQMP-TEG
# Method: as §1
# A sample of deactivated papain was prepared as described above. The protein was separated from low molecular weight compounds using gel filtration (Sephadex PD-10 column). To check for the completeness of inhibition an excess of cysteine was added to a PBS solution of the inhibited papain and incubated for 45 minutes. […] This solution was then re-irradiated with 350 nm fluorescent lamps for 15 minutes.
# Alternatively, re-activation of papain was achieved without isolation of inhibited enzyme. Ethyl vinyl ether derivative, 2-(2-(vinyloxy)ethoxy)ethanol, was added to a photolysate containing inhibited papain, NQMP-TEG, and cysteine in PBS solution. The amount of vinyl ether added was equal to the initial amount of NQMP-TEG.
molecule,measurement,setting,value
"OCc1cc2ccccc2cc1O [1a, 3-hydroxy-2-naphthalenemethanol]",Aqueous solubility,[1],rather low aqueous solubility
"OCc1cc2cccc(O)c2cc1O [1b, 6-(hydroxymethyl)naphthalene-1,7-diol]",Aqueous solubility,[1],rather low aqueous solubility
8-TEG-3-(hydroxymethyl)naphthalen-2-ol [NQMP-TEG],Labeling of peptides lacking free cysteine (selectivity),[2],produced no labeled products
same,Relative activity,"[3]; 100 μM NQMP-TEG, 1.7 μM papain, 80 μM cysteine, 2 minutes irradiation at 350 nm, 800 μM BAPNA",65%
same,Relative activity,"[3]; 109 μM NQMP-TEG, 0.91 μM papain, 44 μM cysteine, 2 minutes irradiation at 350 nm, 200 μM BAPNA",52%
same,Relative activity,"[3]; 109 μM NQMP-TEG, 0.91 μM papain, 44 μM cysteine, 3 minutes irradiation at 350 nm, 200 μM BAPNA",27%
same,Relative activity,"[3]; 109 μM NQMP-TEG, 0.91 μM papain, 44 μM cysteine, 4 minutes irradiation at 350 nm, 200 μM BAPNA",0%
same,Relative activity,"[3]; 109 μM NQMP-TEG, 0.91 μM papain, 44 μM cysteine, irradiation time 0 minutes, 200 μM BAPNA",100%
same,Relative activity,"[3]; 150 μM NQMP-TEG, 1.7 μM papain, 80 μM cysteine, 2 minutes irradiation at 350 nm, 800 μM BAPNA",48%
same,Relative activity,"[3]; 200 μM NQMP-TEG, 1.7 μM papain, 80 μM cysteine, 2 minutes irradiation at 350 nm, 800 μM BAPNA",43%
same,Relative activity,"[3]; 250 μM NQMP-TEG, 1.7 μM papain, 80 μM cysteine, 2 minutes irradiation at 350 nm, 800 μM BAPNA",27%
same,Relative activity,"[3]; 300 μM NQMP-TEG, 1.7 μM papain, 80 μM cysteine, 2 minutes irradiation at 350 nm, 800 μM BAPNA",17%
same,Relative activity,"[3]; 400 μM NQMP-TEG, 1.7 μM papain, 80 μM cysteine, 2 minutes irradiation at 350 nm, 800 μM BAPNA",0%
same,Concentration required to completely inhibit the activity of Papain,"[3]; 2 minutes of irradiation at 350 nm, 1.7 μM papain, 80 μM cysteine",about 350 μM
same,Aqueous solubility,[1],freely soluble in wholly aqueous solutions up to millimolar concentrations
same,Photochemical stability (decomposition or losses by HPLC),[4],No decomposition or losses of materials were detected
same,Papain Activity,[5]; 350 nm irradiation 0 minutes,0%
same,Papain Activity,[5]; 350 nm irradiation 3 minutes,28%
same,Papain Activity,[5]; 350 nm irradiation 4 minutes,40%
same,Papain Activity,[5]; 350 nm irradiation 5 minutes,47%
same,Papain Activity,[5]; 350 nm irradiation 7 minutes,58%
same,Papain Activity,[5]; 350 nm irradiation 8 minutes,76%
Ac-Cys-Lys-Tyr-Trp-Gly-Arg-Asp-Ser-NH2 (Ac-CKYWGRDS-NH2) [compound 4],Photochemical stability (decomposition or losses by HPLC),[4],No decomposition or losses of materials were detected
B1,Protease activity (L-BAPNA cleavage) after incubation with excess cysteine,"[5]; gel-filtered inhibited papain in PBS, excess of cysteine, 45 minutes, no re-irradiation",does not cleave L-BAPNA
same,Restoration of papain activity relative to wild type papain,"[5]; gel-filtered inhibited papain, no NQMP reagent, re-irradiated with 350 nm lamps for 15 minutes",85-92%
